Results from patent publication US7301024B2, “Crystalline forms of gatifloxacin and processes for preparation” (Teva Pharmaceutical Industries Ltd., priority 2002, dated 2007).

Tests used:
[1] = sesquihydrate compared with hemihydrate; cited from earlier work
[2] = compared with hemihydrate; cited from earlier work
[3] = room temperature; compared with the other crystalline forms of U.S. Pat. No. 6,413,969; cited from earlier work
[4] = compared with the other crystalline forms of U.S. Pat. No. 6,413,969; cited from earlier work
[5] = solid-state form after storage at 40° C. and 75% relative humidity, analyzed by XRD; type: physicochemical; details: 3 months
Protocol: As used in connection with the present invention, x-ray diffraction refers to x-ray diffraction by the powder diffraction technique (PXRD). X-ray powder diffraction analysis was performed using a Scintag powder diffractometer with variable goniometer, a Cu source, and a solid state detector. A standard round aluminum sample holder with zero background quartz plate was used. Samples were scanned from 2° to 40° 2θ at 3° per minute. Reflections are reported as peak maxima in the Intensity vs. 2θ plots, and are subject to the normal experimental error (uncertainty). Wet samples were promptly analyzed “as is,” i.e., without drying or grinding prior to the analysis.
Gatifloxacin form CH2 can also be made by heating form Ω to between about 25° C. and about 50° C. at a relative humidity of about 60% to about 80%, preferably for at least about one month. Gatifloxacin so formed is a mixture of form Ω and form CH2.
4. Gatifloxacin form Ω (3 g) was heated to 40° C. at 75% of relative humidity for 3 months.

SMILES: COc1c(N2CCNC(C)C2)c(F)cc2c(=O)c(C(=O)O)cn(C3CC3)c12 (racemic) [sesquihydrate, (±)-1-cyclopropyl-6-fluoro-1,4-dihydro-8-methoxy-7-(3-methyl-1-piperazinyl)-4-oxo-3-quinolinecarboxylic acid]
- hygroscopicity [1]: less hygroscopic
- stability in manufacturing [2]: more stable in manufacturing

SMILES: COc1c(N2CCNC(C)C2)c(F)cc2c(=O)c(C(=O)O)cn(C3CC3)c12 (racemic) [pentahydrate, (±)-1-cyclopropyl-6-fluoro-1,4-dihydro-8-methoxy-7-(3-methyl-1-piperazinyl)-4-oxo-3-quinolinecarboxylic acid]
- aqueous solubility [3]: lowest
- thermodynamic stability [4]: most thermodynamically stable form

SMILES: COc1c(N2CCNC(C)C2)c(F)cc2c(=O)c(C(=O)O)cn(C3CC3)c12 (racemic) [form Ω, (±)-1-cyclopropyl-6-fluoro-1,4-dihydro-8-methoxy-7-(3-methyl-1-piperazinyl)-4-oxo-3-quinolinecarboxylic acid]
- crystalline form found by XRD after storage [5]: mixture of gatifloxacin form Ω and form CH2

SMILES: COc1c(N2CCNC(C)C2)c(F)cc2c(=O)c(C(=O)O)cn(C3CC3)c12 (racemic) [hemihydrate, (±)-1-cyclopropyl-6-fluoro-1,4-dihydro-8-methoxy-7-(3-methyl-1-piperazinyl)-4-oxo-3-quinolinecarboxylic acid]
- hygroscopicity [1]: hygroscopic
